Data as given in USRE47739E1, “2-(pyridin-2-ylamino)-pyrido[2,3-D]pyrimidin-7-ones” (Warner-Lambert Company LLC, priority 2002, dated 2019).
pIC50: −log10 of the molar value. Structures can show the parent of a compound that is named as a salt.

What was measured:
[1] = target: FGF receptor (FGFr) tyrosine kinase (Homo sapiens, UniProt P11362); assay: Assay for Inhibition of FGFr; type: biochemical; settings: 50 μM ATP, Poly (4:1) glutamate-tyrosine substrate, 25° C.
Description: (§1) The assays were carried out as described below.
Assay for Inhibition of FGFr
For FGF receptor (FGFr) tyrosine kinase assays 96-well plates (100 μL/incubation/well), and conditions are optimized to measure the incorporation of ^32P from [γ^32P]ATP into a glutamate-tyrosine co-polymer substrate. Briefly, to each well is added 82.5 μL incubation buffer B (25 mM Hepes (pH 7.0), 150 mM NaCl, 0.1% Triton X-100, 0.2 mM PMSF, 0.2 mM Na3VO4, 10 mM MnCl2) and 750 μg/mL Poly (4:1) glutamate-tyrosine followed by 2.5 μL of the test compound in buffer B and 5 μL of a 7.5 μg/μL FGFr solution to initiate the reaction. Following a 10-minute incubation at 25° C., […] [γ^32P]ATP (0.4 μCi plus 50 μM ATP) is added to each well, and samples are incubated for an additional 10 minutes at 25° C. The reaction is terminated by the addition of 100 μL 30% trichloroacetic acid (TCA) containing 20 mM sodium pyrophosphate and precipitation of material onto glass fiber mats (Wallac). […] Nonspecific activity is defined as radioactivity retained on the filters following incubation of samples with buffer alone (no enzyme). Specific enzymatic activity (enzyme plus buffer) is defined as total activity minus nonspecific activity.

Cdk2/Cyclin A = Cdk2/Cyclin A (Homo sapiens, UniProt P24941); assay: Assay for Inhibition of Cdk2/Cyclin A; type: biochemical; settings: 12 mM ATP (so in the source), retinoblastoma protein substrate, 25° C., 15 minutes
Description: as §1
Assay for Inhibition of Cdk2/Cyclin A
Cdk2 enzyme assays for IC50 determinations and kinetic evaluation are performed as follows. 96-well filter plates (Millipore MADVN6550) are used. […] All components except the ATP are added to the wells, and the plate is placed on a plate mixer for 2 minutes. The reaction is initiated by addition of [^32P]ATP, and the plate is incubated at 25° C. for 15 minutes. The reaction is terminated by addition of 0.1 mL 20% TCA. The plate is kept at 4° C. for at least 1 hour to allow the substrate to precipitate. The wells are then washed five times with 0.2 mL 10% TCA, and ^32P incorporation is determined with a beta plate counter (Wallac Inc., Gaithersburg, Md.).

Cdk4/Cyclin D = Cdk4/Cyclin D (Homo sapiens, UniProt P11802); assay: Assay for Inhibition of Cdk4/Cyclin D; type: biochemical; settings: 25 μM ATP, retinoblastoma protein substrate, 25° C., 15 minutes
Sequence of Cdk4/Cyclin D (P11802 whole entry, species assumed): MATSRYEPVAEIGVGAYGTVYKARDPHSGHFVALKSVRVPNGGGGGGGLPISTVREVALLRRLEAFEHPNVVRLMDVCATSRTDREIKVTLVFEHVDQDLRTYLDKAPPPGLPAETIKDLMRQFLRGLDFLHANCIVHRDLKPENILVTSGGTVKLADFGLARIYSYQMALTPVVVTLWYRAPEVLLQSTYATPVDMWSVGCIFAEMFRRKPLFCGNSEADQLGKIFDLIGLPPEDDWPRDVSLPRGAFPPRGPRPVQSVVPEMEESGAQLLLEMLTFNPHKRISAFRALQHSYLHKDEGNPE
Sequence of Cdk4/Cyclin D (P24385 whole entry partner, species assumed): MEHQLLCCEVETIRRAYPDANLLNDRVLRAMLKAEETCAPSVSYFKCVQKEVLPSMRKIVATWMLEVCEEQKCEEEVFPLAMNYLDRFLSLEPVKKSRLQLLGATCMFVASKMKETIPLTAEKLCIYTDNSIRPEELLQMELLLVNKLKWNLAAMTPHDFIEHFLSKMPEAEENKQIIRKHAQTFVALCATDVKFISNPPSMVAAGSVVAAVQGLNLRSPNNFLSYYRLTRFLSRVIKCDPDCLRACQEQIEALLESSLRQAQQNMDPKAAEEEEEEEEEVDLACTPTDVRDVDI
Description: as §1
Assay for Inhibition of Cdk4/Cyclin D
The Cdk4 enzyme assay for IC50 determination and kinetic evaluation is performed as follows. 96-well filter plates (Millipore MADVN6550) are used. […] Buffer A containing excess EDTA was used to determine the level of background ^32P in the absence of enzyme activity. All components except the ATP are added to the wells, and the plate is placed on a plate mixer for 2 minutes. The reaction is started by adding [^32P]ATP, and the plate is incubated at 25° C. for 15 minutes. The reaction is terminated by addition of 0.1 mL 20% trichloroacetic acid (TCA). The plate is kept at 4° C. for at least 1 hour to allow the substrate to precipitate. The wells are then washed five times with 0.2 mL 10% TCA, and ^32P incorporation is determined with a beta plate counter (Wallac Inc., Gaithersburg, Md.).

Sequence of FGF receptor (FGFr) tyrosine kinase (P11362 22-822): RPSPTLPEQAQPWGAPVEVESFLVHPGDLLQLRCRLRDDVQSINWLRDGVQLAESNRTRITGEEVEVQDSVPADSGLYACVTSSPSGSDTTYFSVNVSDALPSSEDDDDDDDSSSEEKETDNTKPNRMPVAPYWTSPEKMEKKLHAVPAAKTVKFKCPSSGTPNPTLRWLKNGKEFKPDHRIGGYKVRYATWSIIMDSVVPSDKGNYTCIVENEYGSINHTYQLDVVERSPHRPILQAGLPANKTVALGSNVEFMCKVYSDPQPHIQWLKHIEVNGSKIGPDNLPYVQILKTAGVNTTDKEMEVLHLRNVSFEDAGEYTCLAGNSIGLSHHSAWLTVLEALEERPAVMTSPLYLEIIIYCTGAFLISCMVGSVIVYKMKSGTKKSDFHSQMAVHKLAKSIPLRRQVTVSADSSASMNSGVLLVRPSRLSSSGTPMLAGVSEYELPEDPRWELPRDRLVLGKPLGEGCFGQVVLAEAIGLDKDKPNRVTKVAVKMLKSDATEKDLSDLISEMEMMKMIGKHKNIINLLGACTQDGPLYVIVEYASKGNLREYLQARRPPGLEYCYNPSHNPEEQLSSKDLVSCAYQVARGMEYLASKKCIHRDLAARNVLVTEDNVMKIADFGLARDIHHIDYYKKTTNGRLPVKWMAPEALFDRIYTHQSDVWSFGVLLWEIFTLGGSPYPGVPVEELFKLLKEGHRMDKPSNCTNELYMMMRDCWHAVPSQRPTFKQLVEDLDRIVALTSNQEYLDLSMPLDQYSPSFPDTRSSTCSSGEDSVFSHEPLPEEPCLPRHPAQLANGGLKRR

Compound	pIC50 [1]	pIC50 (Cdk2/Cyclin A)	pIC50 (Cdk4/Cyclin D)	melting point
8-Cyclopentyl-6-methoxymethyl-2-(5-piperazin-1-yl-pyridin-2-ylamino)-8H-pyrido[2,3-d]pyrimidin-7-one [Example 120]	5.61	5.42	7.89	
O=c1ccc2cnc(Nc3ccc(N4CCNCC4)cn3)nc2n1C1CC1 (as salt: hydrochloride) [Example 64, 8-cyclopropyl-2-(5-piperazin-1-yl-pyridin-2-ylamino)-8H-pyrido[2,3-d]pyrimidin-7-one]				> 300 °C
O=c1c(Br)cc2cnc(Nc3ccc(N4CCNCC4)cn3)nc2n1C1CCCC1 [Example 3, 6-Bromo-8-cyclopentyl-2-(5-piperazin-1-yl-pyridin-2-ylamino)-8H-pyrido [2,3-d]pyrimidin-7-one hydrochloride]	5.99	5.22	7.80	
Cc1cc2cnc(Nc3ccc(N4CCNCC4)cn3)nc2n(C2CCCC2)c1=O [Example 20, 8-Cyclopentyl-6-methyl-2-(5-piperazin-1-yl-pyridin-2-ylamino)-8H-pyrido[2,3-d]pyrimidin-7-one hydrochloride]	5.79	5.39	7.57	
O=c1c(Cc2ccccc2)cc2cnc(Nc3ccc(N4CCNCC4)cn3)nc2n1C1CCCC1 [Example 24, 6-Benzyl-8-cyclopentyl-2-(5-piperazin-1-yl-pyridin-2-ylamino)-8H-pyrido[2,3-d]pyrimidin-7-one hydrochloride]	< 5.30	< 5.30	8.30	
CCc1cc2cnc(Nc3ccc(N4CCC(O)CC4)cn3)nc2n(C2CCCC2)c1=O [Example 51, 8-Cyclopentyl-6-ethyl-2-(4-hydroxy-3,4,5,6-tetrahydro-2H-[1,3′]bipyridinyl-6′-ylamino)-8H-pyrido [2,3-d]pyrimidin-7-one]		< 5.30	6.87	
Cc1c(Br)c(=O)n(C2CCCC2)c2nc(Nc3ccc(N4CCN(C)CC4)cn3)ncc12 [Example 70, 6-Bromo-8-cyclopentyl-5-methyl-2-[5-(4-methyl-piperazin-1-yl)-pyridin-2-ylamino]-8H-pyrido[2,3-d]pyrimidin-7-one]	< 5.30		6.87	278 to 280 °C (dec.)
CCOCCc1cc2cnc(Nc3ccc(N4CCNCC4)cn3)nc2n(C2CCCC2)c1=O [Example 108, 8-Cyclopentyl-6-(2-ethoxy-ethyl)-2-(5-piperazin-1-yl-pyridin-2-ylamino)-8H-pyrido[2,3-d]pyrimidin-7-one]	< 5.30		6.91	
COCCOCc1cc2cnc(Nc3ccc(N4CCNCC4)cn3)nc2n(C2CCCC2)c1=O [Example 112, 8-Cyclopentyl-6-(2-methoxy-ethoxymethyl)-2-(5-piperazin-1-yl-pyridin-2-ylamino)-8H-pyrido[2,3-d]pyrimidin-7-one]	< 5.30		7.51	
CCOCc1cc2cnc(Nc3ccc(N4CCNCC4)cn3)nc2n(C2CCCC2)c1=O [Example 116, 8-Cyclopentyl-6-ethoxymethyl-2-(5-piperazin-1-yl-pyridin-2-ylamino)-8H-pyrido[2,3-d]pyrimidin-7-one]	< 5.30		7.74	
CCOCc1cc2cnc(Nc3ccc(N4CCCCC4)cn3)nc2n(C2CCCC2)c1=O [Example 124, 8-Cyclopentyl-6-ethoxymethyl-2-(3,4,5,6-tetrahydro-2H-[1,3]bipyridinyl-6′-ylamino)-8H-pyrido[2,3-d]pyrimidin-7-one]		< 5.30	6.26	

More lines, now with the values ahead:

pIC50 [1]	pIC50 (Cdk2/Cyclin A)	pIC50 (Cdk4/Cyclin D)	melting point	Compound
			> 300 °C	CC(=O)c1cc2cnc(Nc3ccc(N4CCNCC4)cn3)nc2n(C2CCCC2)c1=O (as salt: hydrochloride) [Example 33, 6-Acetyl-8-cyclopentyl-2-(5-piperazin-1-yl-pyridin-2-ylamino)-8H-pyrido[2.3-d]pyrimidin-7-one hydrochloride]
			213 to 215 °C	O=c1ccc2cnc(Nc3ccc(N4CCNCC4)cn3)nc2n1C1CCCC1 (as salt: hydrochloride) [Example 59, 8-cyclopentyl-2-(5-piperazin-1-yl-pyridin-2-ylamino)-8H-pyrido[2,3-d]pyrimidin-7-one]
			228 to 230 °C	O=c1ccc2cnc(Nc3ccc(N4CCNCC4)cn3)nc2n1C1CCCCC1 (as salt: hydrochloride) [Example 61, 8-cyclohexyl-2-(5-piperazin-1-yl-pyridin-2-ylamino)-8H-pyrido[2,3-d]pyrimidin-7-one]
	7.68			O=c1ccc2cnc(Nc3ccccc3)nc2n1C1CCCC1 [1′, reference compound]
< 5.30	5.30	6.84		O=c1ccc2cnc(Nc3ccccn3)nc2n1C1CCCC1 [Example 1, 8-Cyclopentyl-2-(pyridin-2-ylamino)-8H-pyrido[2,3-d]pyrimidin-7-one]
< 5.30		< 5.30	267 to 268 °C	Cc1c(Br)c(=O)n(C2CCCC2)c2nc(Nc3ccccn3)ncc12 [Example 37, 6-bromo-8-cyclopentyl-5-methyl-2-(pyridin-2-ylamino)-8H-pyrido[2,3-d]pyrimidin-7-one]
< 5.30	< 5.30	6.84	> 240 °C	Cc1c(I)c(=O)n(C2CCCC2)c2nc(Nc3ccc(N4CCNCC4)cn3)ncc12 [Example 50, 8-Cyclopentyl-6-iodo-5-methyl-2-(5-piperazin-1-yl-pyridin-2-ylamino)-8H-pyrido[2,3-d]pyrimidin-7-one]
< 5.30		5.96	94 to 95 °C	COCCN(CCOC)c1ccc(Nc2ncc3c(C)c(Br)c(=O)n(C4CCCC4)c3n2)nc1 [Example 54, 2-{5-[Bis-(2-methoxy-ethyl)-amino]-pyridin-2-ylamino}-6-bromo-8-cyclopentyl-5-methyl-8H-pyrido[2,3-d]pyrimidin-7-one]
5.82	5.60	7.82		O=c1ccc2cnc(Nc3ccc(N4CCNCC4)cn3)nc2n1C1CCCC1 [Example 59, 8-cyclopentyl-2-(5-piperazin-1-yl-pyridin-2-ylamino)-8H-pyrido[2,3-d]pyrimidin-7-one]
5.86	6.08	7.89		O=c1ccc2cnc(Nc3ccc(N4CCNCC4)cn3)nc2n1C1CCCCC1 [Example 61, 8-cyclohexyl-2-(5-piperazin-1-yl-pyridin-2-ylamino)-8H-pyrido[2,3-d]pyrimidin-7-one]
	5.48	6.37	> 300 °C	Nc1cccc(Nc2ncc3cc(Br)c(=O)n(C4CCCC4)c3n2)n1 [Example 65, 6-Bromo-8-cyclopentyl-2-(pyridin-2,6-yldiamino)-8H-pyrido[2,3-d]pyrimidin-7-one]
	< 5.30	6.12		Cc1c(Br)c(=O)n(C2CCCC2)c2nc(Nc3cccc(N)n3)ncc12 [Example 66, 2-(6-amino-pyridin-2-ylamino)-6-bromo-8-cyclopentyl-5-methyl-8H-pyrido[2,3-d]pyrimidin-7-one]
< 5.30	< 5.30	7.74		CCOCc1cc2cnc(Nc3ccc(N4CCOCC4)cn3)nc2n(C2CCCC2)c1=O [Example 125, 8-Cyclopentyl-6-ethoxymethyl-2-(5-morpholin-4-yl-pyridin-2-ylamino)-8H-pyrido[2,3-d]pyrimidin-7-one]
< 5.30		7.52		CC(=O)c1c(C)c2cnc(Nc3ccc(N4CC(C)OC(C)C4)cn3)nc2n(C2CCCC2)c1=O (centres unmarked) [Example 130, 6-Acetyl-8-cyclopentyl-2-[5-(2,6-dimethyl-morpholin-4-yl)-pyridin-2-ylamino]-5-methyl-8H-pyrido[2,3-d]pyrimidin-7-one]
